Reference: paper PMC6254723, “Synthesis and Pharmacological Screening of Several Aroyl and Heteroaroyl Selenylacetic Acid Derivatives as Cytotoxic and Antiproliferative Agents” (Molecules, 2009)
Where two headings read alike, the source gives them in different places.

What was measured:
[1] = test system: PC-3 cell line; assay: MTT cytotoxicity assay in PC-3
Protocol: The results are tabulated as IC50 values. All experiments were independently performed at least three times and the values were calculated after 72 hours exposure (drug concentrations of 2, 5, 7 and 10 μM).
PC-3 cells were seeded in 96-well plates (Millipore, Eschborn, Germany) at a density of 5 × 10^3 cells per well. The samples were incubated at 37 °C under 5% CO2 overnight prior to the addition of the compounds. Compounds were diluted in complete medium. After 3 days of incubation, 10 μL MTT solution (5 mg/mL in PBS) was added to the cells in each well and these were stored for an additional 4 h at 37 °C. […] The percentage of viable cells was calculated to obtain IC50-values.
PC-3 are human tumorigenic and metastatic prostate cancer cells and these were obtained from American Type Culture Collection (ATCC, Manassas, VA, USA) (passage 36).

[2] = test system: HTB-54; assay: MTT cytotoxicity assay (NCI) in HTB-54; format: cell-based, human; conditions: 72 h; for TGI HTB-54: dose that completely inhibits cell growth; for LD50 HTB-54: dose that kills 50% of cells; for GI50: Homo sapiens, HTB-54, dose that inhibits 50% of cell growth, read-out: GI50 HTB-54
Protocol: (§1) In order to investigate the effect of the active compounds in more detail, we examined the activity on proliferation in other cancer cell lines. […] Tests were carried out in the Department of Health Science, Public University of Navarra against a panel of four human tumour cell lines: lung (HTB-54), colon (HT-29), leukaemia (CCRF-CEM) and breast adenocarcinoma (MCF-7). Cytotoxicity assays were performed based on the reactivity of MTT [3-(4,5-dimethylthiazol-2-yl)-2,5-diphenyl-tetrazolium bromide], as described by NCI [39]. […] Doxorubicin was used as a control. As guidance with regard to selectivity, all of the compounds were further examined for toxicity in a mammary gland cell culture derived from non-malignant cells (184B5). Drug concentrations ranged from 0.01 to 100 μM.
(§2) The cytotoxic effects of each substance were tested at five different doses between 0.01 and 100 μM. Each substance was initially dissolved in DMSO at a concentration of 0.1 M, and serial dilutions were prepared using culture medium. The plates with cells from the different lines, to which medium containing the substance under test were added, were incubated for 72 h at 37 °C in a humidified atmosphere containing 5% CO2. European Collection of Cell Cultures (ECACC) or American Type Culture Collection (ATCC) provided human tumour cell lines. Four cell lines were used: one human lymphocytic leukemia (CCRF-CEM) and three human solid tumours, one colon carcinoma (HT-29), one lung carcinoma (HTB-54) and one breast adenocarcinoma (MCF-7). CCRF-CEM, HT-29 and HTB-54 cells were grown in RPMI 1640 medium (Life Technologies, Carlsbad, CA, USA) supplemented with 10% foetal calf serum, 2 mM L-glutamine, 100 units/mL penicillin, 100 μg/mL streptomycin and 10 mM HEPES buffer (pH = 7.4). MCF-7 cells were grown in EMEM medium (Clonetics) supplemented with 10% foetal calf serum, 2 mM L-glutamine, 100 units/mL penicillin and 100 μg/mL streptomycin. 184B5 cells were grown Hams F-12/DMEM (50:50) supplemented as described by Li et al.. Cytotoxicity was then determined by the MTT method. […] Data were obtained from at least three independent experiments performed in quadruplicate.

[3] = test system: 184B5; assay: MTT toxicity assay in non-malignant mammary gland cells 184B5; format: cell-based; conditions: 72 h
Protocol: as §1, §2

[4] = as above; format: cell-based; conditions: human
Protocol: as §1, §2

[5] = test system: MCF-7; assay: MTT cytotoxicity assay (NCI) in MCF-7; format: cell-based, human; conditions: 72 h; for TGI MCF-7: dose that completely inhibits cell growth; for LD50 MCF-7: dose that kills 50% of cells; for GI50: Homo sapiens, MCF7, dose that inhibits 50% of cell growth, read-out: GI50 MCF-7
Protocol: as §1, §2

[6] = test system: HT-29; assay: MTT cytotoxicity assay (NCI) in HT-29; format: cell-based, human; conditions: 72 h
Protocol: as §1, §2

[7] = test system: CCRF-CEM; assay: MTT cytotoxicity assay (NCI) in CCRF-CEM; format: cell-based, human; conditions: 72 h; for TGI CCRF-CEM: dose that completely inhibits cell growth; for LD50 CCRF-CEM: dose that kills 50% of cells; for GI50: Homo sapiens, CCRF-CEM, dose that inhibits 50% of cell growth, read-out: GI50 CCRF-CEM
Protocol: as §1, §2

[8] = test system: MCF-7; conditions: comparison drugs, MCF-7 by context; no reference given; cited from earlier work
[9] = Homo sapiens, PC-3, 72 h, read-out: IC50 PC-3 cell line
[10] = Homo sapiens, PC-3, read-out: IC50 (cytotoxic activity in PC-3 cell line)
[11] = read-out: IC50 PC-3 cell line, 72 h exposure, MTT, drug concentrations 2, 5, 7 and 10 μM, NE = no effect is observed

O=C(O)C[Se]C(=O)c1ccc2ccccc2c1 [Compound 17, (2-naphthoylselenyl)acetic acid]
IC50 [1, 9]: > 10 µM

O=C(O)C[Se]C(=O)C(c1ccccc1)c1ccccc1 [Compound 18, (diphenylacetylselenyl)acetic acid]
IC50 [1, 9]: > 10 µM

O=C(O)C[Se]C(=O)c1ccncc1 [Compound 19, (4-pyridoylselenyl)acetic acid]
IC50 [1, 9]: > 10 µM | IC50 [1, 10]: > 10 µM

O=C(O)C[Se]C(=O)c1cccnc1 [Compound 20, (3-pyridoylselenyl)acetic acid]
IC50 [1, 9]: > 10 µM | IC50 [1, 10]: > 10 µM

O=C(O)C[Se]C(=O)c1cccnc1Cl [Compound 21, (3-(2-chloro)-pyridoylselenyl)acetic acid]
TGI HTB-54 [2]: >100 µM | LD50 HTB-54 [2]: >100 µM | GI50 [2]: 11.8 µM | LD50 184B5 ([3]; non-malignant cells, dose that kills 50% of cells): 7.20 µM | TGI 184B5 ([3]; human): 1.89 µM | GI50 at 72 h [4]: 0.05 µM | TGI MCF-7 [5]: 8.27 µM | LD50 MCF-7 [5]: 89.21 µM | GI50 [5]: 0.003 µM | TGI HT-29 ([6]; dose that completely inhibits cell growth): 60.94 µM | LD50 HT-29 ([6]; dose that kills 50% of cells): >100 µM | GI50 ([6]; Homo sapiens, HT-29, dose that inhibits 50% of cell growth, read-out: GI50 HT-29): 7.53 µM | IC50 [1, 9]: 10 µM | IC50 [1, 10]: 10 µM | TGI CCRF-CEM [7]: >100 µM | LD50 CCRF-CEM [7]: >100 µM | GI50 [7]: > 100 µM

CCCSc1ncccc1C(=O)[Se]CC(=O)O [Compound 22, (3-(2-propylthio)pyridoylselenyl)acetic acid]
IC50 [1, 9]: > 10 µM | IC50 [1, 10]: > 10 µM

O=C(O)C[Se]C(=O)c1cccs1 [Compound 23, (2-thienoylselenyl)-acetic acid]
IC50 [1, 9]: > 10 µM | IC50 [1, 10]: > 10 µM

O=C(O)C[Se]C(=O)c1cnccn1 [Compound 24, (pyrazinoylselenyl)acetic acid]
IC50 [1, 9]: > 10 µM | IC50 [1, 10]: > 10 µM

O=C(O)C[Se]C(=O)c1ccc2ccccc2n1 [Compound 25, (2-quinoloylselenyl)acetic acid]
IC50 [1, 9]: > 10 µM

O=C(O)C[Se]C(=O)c1cnc2ccccc2c1 [Compound 26, (3-quinoloylselenyl)acetic acid]
IC50 [1, 9]: > 10 µM

COc1cccc2c1C(=O)c1c(O)c3c(c(O)c1C2=O)C[C@@](O)(C(=O)CO)C[C@@H]3O[C@H]1C[C@H](N)[C@H](O)[C@H](C)O1 [Doxorub., doxorubicin, reference compound]
TGI HTB-54 [2]: 1.25 µM | LD50 HTB-54 [2]: 3.45 µM | GI50 [2]: < 0.01 µM | TGI MCF-7 [5]: >100 µM | LD50 MCF-7 [5]: >100 µM | GI50 [5]: 0.88 µM | TGI CCRF-CEM [7]: 0.071 µM | LD50 CCRF-CEM [7]: 0.29 µM | GI50 [7]: 0.033 µM

CC(=O)O[C@H]1C(=O)[C@@]2(C)[C@H]([C@H](OC(=O)c3ccccc3)[C@]3(O)C[C@H](OC(=O)[C@H](O)[C@@H](NC(=O)c4ccccc4)c4ccccc4)C(C)=C1C3(C)C)[C@]1(OC(C)=O)CO[C@@H]1C[C@@H]2O [paclitaxel]
GI50 [8]: 0.01 µM | TGI [8]: 20 ± 1.9 µM

(3-phenyl-propanonylselenyl)acetic acid [Compound 12]
IC50 [1, 11]: > 10 µM

(4-methoxyphenylselenyl)acetic acid [Compound 7]
IC50 PC-3 cell line ([1]; 72 h exposure, MTT, drug concentrations 2, 5, 7 and 10 μM, NE = no effect is observed): inactive | IC50 ([1]; read-out: IC50 (cytotoxic activity in PC-3 cell line), as repeated in Table 5, NE = no effect): > 10 µM | IC50 [1, 11]: > 10 µM
